{"source": "patent US20150335558A1", "about": "“NERVE GROWTH INHIBITOR, CUTANEOUS-SENSORY-IRRITATION INHIBITOR, AND MARKER FOR CUTANEOUS-SENSORY-IRRITATION DETECTION” (HOYU CO., LTD., priority 2012, published 2015)", "format_in_all_cases": "in vivo", "key": {"[1]": {"test_system": "histamine in mouse epidermis and dermis", "assay": "Amount of histamine in ICR mouse skin after SDS (Sample Experiment 1-3)", "details": "ICR mice, Day 4, 10% SDS application group vs solvent control", "experimental": "The present Sample Experiment was conducted using ICR mice, and SDS was used as a stimulating substance. After SDS was applied, the amount of histamine in the skin of each mouse was assessed, and so was the HDC expression amount in the skin of each mouse. The same ICR mice as used in Sample Experiment 1-1 was used. Treatments of the ICR mice, such as preliminary rearing, and the shearing/depilating of the rotal back, were performed similarly to Sample Experiment 1-1. A 10% aqueous solution obtained by dissolving SDS in distilled water was applied to the mouse rostal back as a stimulating substance against the skin similarly to Sample Experiment 1-1. Distilled water was applied to the solvent control group (Vehicle). Skin was collected by operations similar to that mentioned in “Amount of Histamine in Mouse Skin” in Sample Experiment 1-2 from each ICR mouse of the 10% SDS aqueous solution application group and the solvent control group mentioned above after 4 days had passed from application (Day 4). The collected skins were separated into the epidermis and the dermis, and the amounts of histamine in those skins were measured."}, "[2]": {"test_system": "histamine in mouse epidermis and dermis", "assay": "Amount of histamine in skin of mast cell deficient and normal control mice after SDS (Sample Experiment 1-2)", "details": "Day 4, both mast cell deficient and normal control mice, SDS applied group vs solvent control", "experimental": "Meanwhile, skin was collected from each of the mast cell deficient mice and normal control mice in the 10% SDS aqueous solution application group mentioned above at Day 4 while the mice were under anesthesia after perfusion with a phosphate buffer solution (PBS) using the cardiac blood circulation system (punched out with a biopsy punch in a circular shape of a diameter of 18 mm). The amounts of histamine in the collected skins were measured. In other words, each collected skin was immersed in PBS of 60° C. for 30 secs., then separated into the epidermis and the dermis. Subsequently, the amounts of histamine in the epidermis and the dermis were measured using the measurement kit (histamine enzyme immunoassay kit (Immunotech, Marseilles, France)). To measure the amount of histamine, tissues of both the epidermis and the dermis were pulverized to create tissue suspensions, which were subjected to centrifugation, then supernatants were collected to measure the amounts of histamine in the supernatants."}, "[3]": {"test_system": "L-histidine decarboxylase (HDC)", "assay": "HDC expression amount in mouse epidermis and dermis by Western blot (Sample Experiment 1-3)", "details": "ICR mice, Day 4, 10% SDS vs solvent control", "description": "Concerning the epidermis and dermis obtained by the method in the “Amount of Histamine in Mouse Skin” section above, the HDC in the epidermis and the HDC in the dermis were quantitatively determined by the Western blot analysis. The protein in the epidermis and the dermis was extracted using the Mammalian cell lysis kit (Sigma, Tokyo, Japan).\nThe protein extract was subjected to centrifugation and the obtained supernatant was used as a protein solution. The amount of protein in the protein solution was quantitatively determined using a protein quantification kit, 2-D Quant Kit of GE Health Care Bioscience Co. Then, a sample buffer containing a reducing agent, 2-mercaptoethanol, was added to a certain amount of protein, and the mixture was reacted at 95° C. to cut the disulfide bond in the protein structure. This enables electrophoresis that reflects the molecular amount.\nThe protein solution processed in the above manner was subjected to the Western blot analysis. In other words, electrophoresis was performed according to the following electrophoresis condition. As a result, protein was separated according to the molecular amount. Then, the separated protein was transcribed to the membrane according to the following transcription condition.\nApplied gel: Nupage 4%-12% Bis-tris gels (Invitrogen Corp., Carlsbad, Calif.) Electrophoresis buffer: 3-morpholinopropanesulfonic acid (MOPS) buffer Current/electrophoresis time: 200V, 100 mins.\nApplied membrane: Polyvinylidene Fluoride (PVDF) membrane Electrophoresis buffer: NuPAGE transcription buffer (Invitrogen Corp., Carlsbad, Calif.) pos Current/electrophoresis time: 30V, 60 mins.\nThe membrane was cut at about 50 kDa after transcription. Then, blocking was performed with a 1% skim milk aqueous solution. […] After processing the secondary antibody and then washing each membrane with PBS-T (a solution comprising PBS and 0.1% Tween20), a band was detected with a fluorescent scanner. Then, the detected band was determined by quantification using an image analysis software Scion Image (Scion. Corp., Frederick, Md., USA). The Scion Image is a software that selects the band of the protein to be quantified, reads the band area and the density of the color tone, and detects the numerical value corresponding to the protein expression amount based on those information.\nHDC and β-actin (component of the cytoskeleton) are detected from the above processing. […]"}}}
{"compound": "CCCCCCCCCCCCOS(=O)(=O)[O-].[Na+]", "note": "[SDS, sodium dodecyl sulfate]", "values": [{"measurement": "amount of histamine in mouse dermis", "setting": "[1]", "value": "does not differ significantly"}, {"measurement": "amount of histamine in mouse epidermis", "setting": "[1]", "value": "significantly higher"}, {"measurement": "amount of histamine in mouse dermis", "setting": "[2]", "value": "barely increased"}, {"measurement": "amount of histamine in mouse epidermis", "setting": "[2]", "value": "significantly high"}, {"measurement": "53 kDa-HDC (active) expression amount, dermis", "setting": "[3]", "value": "did not change"}, {"measurement": "53 kDa-HDC (active) expression amount, epidermis", "setting": "[3]", "value": "increased"}, {"measurement": "74 kDa-HDC (inactive) expression amount, dermis", "setting": "[3]", "value": "increased significantly"}, {"measurement": "74 kDa-HDC (inactive) expression amount, epidermis", "setting": "[3]", "value": "increased"}]}
